Data: publication PMC7044277 (Nature Communications, 2020)
Values joined by “and” are separate entries in the source; they are usually repeats but may differ in a detail not shown here. Equal values may be shown once.

Columns and labels:
Assay type in all cases: cell-based
320 non-olfactory GPCRs [1] = target: T1, 320 non-olfactory GPCRs (Homo sapiens, UniProt Q86SM8); details: receptor MRGPRE; replicate values, Fig_4g
T1 construct: expressed in transfected cells; host or cells: HTLA cells

320 non-olfactory GPCRs [2] = target: T2, 320 non-olfactory GPCRs (Homo sapiens, UniProt O14842)
T2 construct: expressed in transfected cells; host or cells: HTLA cells
T2 sequence (O14842 whole entry): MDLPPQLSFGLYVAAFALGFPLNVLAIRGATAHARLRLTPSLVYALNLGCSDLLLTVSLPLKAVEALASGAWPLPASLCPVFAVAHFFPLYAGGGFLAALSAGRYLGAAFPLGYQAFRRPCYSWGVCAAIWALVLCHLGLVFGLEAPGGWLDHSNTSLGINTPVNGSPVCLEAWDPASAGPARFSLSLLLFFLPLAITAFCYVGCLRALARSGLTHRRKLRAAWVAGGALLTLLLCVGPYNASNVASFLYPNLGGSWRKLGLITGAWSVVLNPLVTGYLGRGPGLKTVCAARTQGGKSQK

320 non-olfactory GPCRs [3] = target: 320 non-olfactory GPCRs (Homo sapiens, UniProt P21453); details: receptor S1PR1; replicate values, Fig_4g
Chain of 320 non-olfactory GPCRs (Homo sapiens, UniProt P21453) (P21453 whole entry): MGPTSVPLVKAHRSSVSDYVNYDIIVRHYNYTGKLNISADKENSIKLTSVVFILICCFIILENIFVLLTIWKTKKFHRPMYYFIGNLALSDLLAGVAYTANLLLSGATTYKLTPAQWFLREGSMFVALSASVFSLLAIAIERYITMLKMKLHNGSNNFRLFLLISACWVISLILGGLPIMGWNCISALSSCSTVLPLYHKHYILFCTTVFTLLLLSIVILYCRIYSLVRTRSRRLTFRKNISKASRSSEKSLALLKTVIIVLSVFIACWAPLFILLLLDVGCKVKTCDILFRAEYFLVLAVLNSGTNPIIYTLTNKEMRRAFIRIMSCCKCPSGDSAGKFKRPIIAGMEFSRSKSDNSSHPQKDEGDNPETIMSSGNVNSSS

DRD2 (D2 long receptor) = DRD2 (D2 long receptor) (Homo sapiens, UniProt P14416); experiment: Gαi1-γ2 dissociation BRET assay, HEK293T; details: agonist
Chain of DRD2 (D2 long receptor) (P14416 whole entry): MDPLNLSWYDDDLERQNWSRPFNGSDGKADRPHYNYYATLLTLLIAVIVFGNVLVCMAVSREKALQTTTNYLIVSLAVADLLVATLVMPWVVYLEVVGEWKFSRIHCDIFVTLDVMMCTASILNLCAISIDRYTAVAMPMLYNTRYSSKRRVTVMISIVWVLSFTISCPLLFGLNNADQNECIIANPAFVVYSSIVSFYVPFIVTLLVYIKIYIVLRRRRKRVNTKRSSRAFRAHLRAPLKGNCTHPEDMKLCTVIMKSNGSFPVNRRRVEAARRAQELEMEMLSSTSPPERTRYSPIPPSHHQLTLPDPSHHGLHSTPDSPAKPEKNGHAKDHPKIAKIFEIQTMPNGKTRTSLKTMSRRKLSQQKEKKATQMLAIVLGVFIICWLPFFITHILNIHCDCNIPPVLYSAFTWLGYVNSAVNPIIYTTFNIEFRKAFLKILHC
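Throughout, for Fold of Basal: compound tested at 1 µM final concentration.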
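Throughout, for GPCRome agonism screen response: fold over basal response of each receptor without drug.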

T1 sequence (Q86SM8 whole entry): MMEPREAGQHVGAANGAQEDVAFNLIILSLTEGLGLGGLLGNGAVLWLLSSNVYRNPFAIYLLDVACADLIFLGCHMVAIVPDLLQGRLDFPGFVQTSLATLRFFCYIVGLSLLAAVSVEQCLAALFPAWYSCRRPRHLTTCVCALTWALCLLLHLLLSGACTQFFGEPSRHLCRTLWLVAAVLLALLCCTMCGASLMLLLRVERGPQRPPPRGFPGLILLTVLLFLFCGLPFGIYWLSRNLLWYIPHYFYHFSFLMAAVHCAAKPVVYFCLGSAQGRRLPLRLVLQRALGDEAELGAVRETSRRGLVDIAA

CCOc1cccc2cc(C(C)NCC3(O)CCCCC3)oc12 (stereo not shown) [O4LE6]
GPCRome agonism screen response (320 non-olfactory GPCRs [1]): 0.6882 and 1.103 and 0.7685 and 1.012
Fold of Basal (320 non-olfactory GPCRs [2]): 1.069 and 1.057 and 1.21 and 0.9963
GPCRome agonism screen response (320 non-olfactory GPCRs [3]): 2.353 and 1.219 and 1.439 and 0.7423
EC50 (DRD2 (D2 long receptor)): 24.1 nM
